Like-named read-outs stand apart in the source and are kept apart here. Where only a bound is given, the exact number is not on record here.

In assay [1] the test system is HeLa cervical adenocarcinoma cells. Kind of assay: bipolar spindle formation in HeLa cells. The note with it: for IC50: read-out: Bipolar spindle formation IC50; for inhibitory activity in the cell-based assay: HeLa bipolar spindle formation. In kind it is cell-based, human. As for the experimental part:
(§1) Biochemical- and cell-based assays were used to evaluate the inhibitory activities of the STLC analogs. Using a commercially available assay from Cytoskeleton, Inc, analogs were assayed for their ability to block the microtubule-activated ATPase activity of recombinant human EG5 motor domain. In parallel, HeLa cells were treated for four hours with a range of concentrations, and then fixed, stained for microtubules, and mitotic cells were scored for spindle bipolarity.

Assay [2] deals with T1, recombinant human EG5 motor domain (Homo sapiens, UniProt P52732).
T1 construct: recombinant human EG5 motor domain; purchased Cytoskeleton, Inc
T1 sequence (P52732 18-359 limits assumed): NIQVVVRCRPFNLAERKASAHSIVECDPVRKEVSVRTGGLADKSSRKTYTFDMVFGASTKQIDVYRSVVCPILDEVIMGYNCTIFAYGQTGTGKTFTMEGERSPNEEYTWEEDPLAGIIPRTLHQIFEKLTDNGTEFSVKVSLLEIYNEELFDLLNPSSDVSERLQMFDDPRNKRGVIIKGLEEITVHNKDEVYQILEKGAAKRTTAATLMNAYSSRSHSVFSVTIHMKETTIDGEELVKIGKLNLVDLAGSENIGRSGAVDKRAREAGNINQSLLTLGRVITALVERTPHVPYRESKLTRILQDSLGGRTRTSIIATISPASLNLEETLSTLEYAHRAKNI
Nature of the assay: microtubule-activated Eg5 ATPase assay (Cytoskeleton, Inc). In kind it is biochemical. The note with it: for IC50: microtubule-activated ATPase activity of recombinant human EG5 motor domain; for inhibitory activity in the biochemical assay: Eg5 ATPase assay. The method, then: as §1

For assay [3], the system named is SF-295. The note with it: Central Nervous System SF-295; data previously determined; cited from earlier work.
Assay [4] deals with SK-OV-3. The note with it: Ovarian SK-OV-3; data previously determined; cited from earlier work.
For assay [5], the system named is UO-31. The settings on record: Renal UO-31; data previously determined; cited from earlier work.
Assay [6] deals with HCT-116. The note with it: Colon HCT-116; data previously determined; cited from earlier work.
Assay [7] deals with NCI-H226. The note with it: Non-Small Cell Lung NCI-H226; data previously determined; cited from earlier work.
Assay [8] deals with OVCAR-5. The note with it: Ovarian OVCAR-5; data previously determined; cited from earlier work.
The subject of assay [9] is NCI-H522. The note with it: Non-Small Cell Lung NCI-H522; data previously determined; cited from earlier work.
The subject of assay [10] is U251. The settings on record: Central Nervous System U251; data previously determined; cited from earlier work.
Where [11] appears, read: Homo sapiens, HeLa cells treated with analog for 4 hours, scored for bipolar vs monopolar spindle formation.

The term IC50 denotes the concentration that gives 50% inhibition. For `N[C@@H](COC(c1ccccc1)(c1ccccc1)c1ccccc1)C(=O)O` [Compound 2.8, (S)-2-amino-3-(trityloxy)propanoic acid], the values for the IC50 in assay [1] (setting [11]) and in assay [2] were 850 nM and 760 nM, respectively.
In the same order, the values of `COc1ccc(C(SC[C@H](N)C(=O)NCCOCCN)(c2ccccc2)c2ccccc2)cc1` [Compound 4.2, (R)-2-amino-N-(2-(2-aminoethoxy)ethyl)-3-(((4-methoxyphenyl)diphenylmethyl)thio)propanamide] are 540 nM and 280 nM.
Consider `N[C@@H](CSC(c1ccccc1)c1ccccc1)C(=O)O` [Compound 2.9, (R)-2-amino-3-(benzhydrylthio)propanoic acid], for which the “inhibitory activity in the cell-based assay” value in assay [1] is listed as “no measurable activity”. Moreover, the IC50 in assay [1] (setting [11]) and in assay [2] was greater than 100000 nM each time. In [2], the “inhibitory activity in the biochemical assay” value is “no measurable activity”.
Regarding `N[C@@H](CSC1c2ccccc2-c2ccccc21)C(=O)O` [Compound 3.0, (R)-3-((9H-fluoren-9-yl)thio)-2-aminopropanoic acid], the “inhibitory activity in the cell-based assay” value in assay [1] is reported as “no measurable activity”. In assay [1] (setting [11]), the IC50 is greater than 100000 nM. Further, in assay [2], the “inhibitory activity in the biochemical assay” value is recorded as “no measurable activity” and the IC50 was greater than 100000 nM.
As to `C#CCNC(=O)[C@@H](N)CSC(c1ccccc1)(c1ccccc1)c1ccccc1` [Compound 3.5, (R)-2-amino-N-(prop-2-yn-1-yl)-3-(tritylthio)propanamide], the IC50 in [1] (setting [11]) stood at 760 nM; in assay [2], 490 nM.
In the same order, the values of `NC(=O)[C@@H](N)CSC(c1ccccc1)(c1ccccc1)c1ccccc1` [Compound 3.3, (R)-2-amino-3-(tritylthio)propanamide] are 670 nM and 540 nM.
Take `N[C@@H](CSCC1c2ccccc2-c2ccccc21)C(=O)O` [Compound 2.7, (R)-3-(((9H-fluoren-9-yl)methyl)thio)-2-aminopropanoic acid]: the “inhibitory activity in the cell-based assay” value in [1] is listed as “no measurable activity”. In assay [1] (setting [11]), the IC50 was greater than 100000 nM. Also, in assay [2], the “inhibitory activity in the biochemical assay” value is “no measurable activity” and the IC50 was greater than 100000 nM.
Take `N[C@@H](CSC(c1ccccc1)(c1ccccc1)c1cccnc1)C(=O)O` [Compound 3.4, (R)-2-amino-3-((diphenyl(pyridin-3-yl)methyl)thio)propanoic acid]: in assay [1], the “inhibitory activity in the cell-based assay” value is “no measurable activity”. The IC50 in assay [1] (setting [11]) and in [2] was greater than 100000 nM throughout. Moreover, the “inhibitory activity in the biochemical assay” value in [2] was “no measurable activity”.
Turning to `CC(=O)N[C@@H](CSC(c1ccccc1)(c1ccccc1)c1ccccc1)C(N)=O` [Compound 3.6, (R)-2-acetamido-3-(tritylthio)propanamide], the “inhibitory activity in the cell-based assay” value in assay [1] was “no measurable activity”. Also, the IC50 in assay [1] (setting [11]) is greater than 100000 nM. Moreover, in [2], the “inhibitory activity in the biochemical assay” value is “no measurable activity” and the IC50 was greater than 100000 nM.
As usually defined, the GI50 is the concentration at which growth is held to half of that of the control. Consider `N[C@@H](CSC(c1ccccc1)(c1ccccc1)c1ccccc1)C(=O)O` [Compound 2.5, (R)-2-amino-3-(tritylthio)propanoic acid], for which the GI50 is 500 nM in [3]; 100000 nM in assay [4]; 100000 nM in [5]; 500 nM in [6]; 100000 nM in assay [7]; 100000 nM in [8]. For the same compound, the results for the GI50 in assay [9] and in [10] were 500 nM and 1000 nM, respectively. In assay [1] (setting [11]), the IC50 worked out at 660 nM.
`COc1ccc(C(SC[C@@H](N)CO)(c2ccccc2)c2ccccc2)cc1` [Compound 1.3]: the IC50 in assay [1] (Homo sapiens, HeLa, 4 h) was 200 nM.
Take `N[C@H](CO)CSC(c1ccccc1)(c1ccccc1)c1ccccc1` [Compound 1.1]: the IC50 in assay [1] (Homo sapiens, HeLa, 4 h) stood at 580 nM.
In the case of `COC(=O)[C@@H](N)CSC(c1ccccc1)(c1ccccc1)c1ccccc1` [Compound 3.2, (R)-methyl 2-amino-3-(tritylthio)propanoate], the results for the half-inhibitory concentration (IC50) in assay [1] (setting [11]) and in assay [2] were 920 nM and 510 nM, respectively.
On to “(R)-2-amino-3-(((4-methoxyphenyl)diphenylmethyl)thio)propanamide [Compound 3.9]”, for which the “inhibitory activity in the cell-based assay” value in assay [1] was “no measurable activity”. In addition, the IC50 in [1] (HeLa cells treated with analog for 4 hours, scored for bipolar vs monopolar spindle formation) is greater than 100000 nM. In addition, the “inhibitory activity in the biochemical assay” value in [2] is listed as “no measurable activity”.
For the compound `CCCCNC(=O)[C@@H](N)CSC(c1ccccc1)(c1ccccc1)c1ccccc1` [Compound 3.8, (R)-2-amino-N-butyl-3-(tritylthio)propanamide], the IC50 in [1] (setting [11]) is 680 nM; in assay [2] it was 560 nM.
In the same order, the values of `C#CCNC(=O)[C@@H](N)CSC(c1ccccc1)(c1ccccc1)c1ccc(OC)cc1` [Compound 4.0] are 440 nM and 310 nM.
Regarding `CC(=O)N[C@@H](CSC(c1ccccc1)(c1ccccc1)c1ccccc1)C(=O)O` [Compound 3.1, (R)-2-acetamido-3-(tritylthio)propanoic acid], the “inhibitory activity in the cell-based assay” value in [1] was “no measurable activity”. In addition, in [1] (setting [11]), the IC50 was greater than 100000 nM. In assay [2], the “inhibitory activity in the biochemical assay” value is recorded as “no measurable activity” and the 50% inhibitory concentration (IC50) is greater than 100000 nM.

Source of the values: US8349899B1 (Arrowhead Center, Inc., priority 2008, dated 2013).
